# Values joined by “and” are separate entries in the source; they are usually repeats but may differ in a detail not shown here. Identical values can stand only once. ± gives the expanded uncertainty stated by the source.
# Legend:
# [1] = 101.33 kPa, Liquid; for viscosity: Capillary tube (Ostwald / Ubbelohde) method
# [2] = xn = mol fraction of the nth substance listed; settings: 101.33 kPa, Liquid; for viscosity: Capillary tube (Ostwald / Ubbelohde) method
Structure (SMILES),mass density ([1]; 293.15 K),speed of sound ([1]; 293.15 K),viscosity ([1]; 293.15 K),mass density ([1]; 298.15 K),speed of sound ([1]; 298.15 K),viscosity ([1]; 298.15 K),mass density ([1]; 303.15 K),speed of sound ([1]; 303.15 K),viscosity ([1]; 303.15 K),mass density ([1]; 308.15 K),speed of sound ([1]; 308.15 K),viscosity ([1]; 308.15 K),mass density ([1]; 313.15 K),speed of sound ([1]; 313.15 K),viscosity ([1]; 313.15 K),other results
C1CCCC1 [cyclopentane],744.43 ± 0.51 kg/m3,1232 ± 2 m/s,0.438 ± 0.02 mPa·s,739.47 ± 0.51 kg/m3,1206 ± 2 m/s,0.415 ± 0.02 mPa·s,734.47 ± 0.51 kg/m3,1180 ± 2 m/s,0.394 ± 0.02 mPa·s,729.42 ± 0.51 kg/m3,1154 ± 2 m/s,0.374 ± 0.02 mPa·s,724.32 ± 0.51 kg/m3,1129 ± 2 m/s,0.355 ± 0.02 mPa·s,–
CCOC(=O)OCC [diethyl carbonate],974.8 ± 0.27 kg/m3,1197 ± 2 m/s and 1198 ± 2 m/s,0.809 ± 0.021 mPa·s,969.21 ± 0.27 kg/m3,1177 ± 2 m/s,0.75 ± 0.021 mPa·s,963.58 ± 0.27 kg/m3,1156 ± 2 m/s and 1157 ± 2 m/s,0.702 ± 0.021 mPa·s,957.93 ± 0.28 kg/m3,1136 ± 2 m/s,0.658 ± 0.02 mPa·s,952.26 ± 0.28 kg/m3,1116 ± 2 m/s,0.618 ± 0.02 mPa·s,–
CCOC(=O)OCC [diethyl carbonate] + C1CCCC1,–,–,–,–,–,–,–,–,–,–,–,–,–,–,–,"viscosity ([2]; 293.15 K, x1 = 1): 0.809 ± 0.021 mPa·s; mass density ([2]; 293.15 K, x1 = 1): 974.8 ± 0.27 kg/m3; speed of sound ([2]; 293.15 K, x1 = 1): 1197 ± 2 m/s; viscosity ([2]; 298.15 K, x1 = 1): 0.75 ± 0.021 mPa·s; mass density ([2]; 298.15 K, x1 = 1): 969.21 ± 0.27 kg/m3; speed of sound ([2]; 298.15 K, x1 = 1): 1177 ± 2 m/s; viscosity ([2]; 303.15 K, x1 = 1): 0.702 ± 0.021 mPa·s; mass density ([2]; 303.15 K, x1 = 1): 963.58 ± 0.27 kg/m3; speed of sound ([2]; 303.15 K, x1 = 1): 1156 ± 2 m/s; viscosity ([2]; 308.15 K, x1 = 1): 0.658 ± 0.02 mPa·s; mass density ([2]; 308.15 K, x1 = 1): 957.93 ± 0.28 kg/m3; speed of sound ([2]; 308.15 K, x1 = 1): 1136 ± 2 m/s; viscosity ([2]; 313.15 K, x1 = 1): 0.618 ± 0.02 mPa·s; mass density ([2]; 313.15 K, x1 = 1): 952.26 ± 0.28 kg/m3; speed of sound ([2]; 313.15 K, x1 = 1): 1116 ± 2 m/s"
COC(=O)OC [dimethyl carbonate],1069.9 ± 0.56 kg/m3,1220 ± 2 m/s,0.623 ± 0.021 mPa·s,1063.33 ± 0.56 kg/m3,1198 ± 2 m/s,0.584 ± 0.021 mPa·s,1056.71 ± 0.55 kg/m3,1177 ± 2 m/s,0.549 ± 0.02 mPa·s,1050.07 ± 0.55 kg/m3,1155 ± 2 m/s,0.517 ± 0.02 mPa·s,1043.39 ± 0.54 kg/m3,1134 ± 2 m/s,0.488 ± 0.02 mPa·s,–
COC(=O)OC [dimethyl carbonate] + C1CCCC1,–,–,–,–,–,–,–,–,–,–,–,–,–,–,–,"viscosity ([2]; 293.15 K, x1 = 1): 0.623 ± 0.021 mPa·s; mass density ([2]; 293.15 K, x1 = 1): 1069.9 ± 0.56 kg/m3; speed of sound ([2]; 293.15 K, x1 = 1): 1220 ± 2 m/s; viscosity ([2]; 298.15 K, x1 = 1): 0.584 ± 0.021 mPa·s; mass density ([2]; 298.15 K, x1 = 1): 1063.33 ± 0.56 kg/m3; speed of sound ([2]; 298.15 K, x1 = 1): 1198 ± 2 m/s; viscosity ([2]; 303.15 K, x1 = 1): 0.549 ± 0.02 mPa·s; mass density ([2]; 303.15 K, x1 = 1): 1056.71 ± 0.55 kg/m3; speed of sound ([2]; 303.15 K, x1 = 1): 1177 ± 2 m/s; viscosity ([2]; 308.15 K, x1 = 1): 0.517 ± 0.02 mPa·s; mass density ([2]; 308.15 K, x1 = 1): 1050.07 ± 0.55 kg/m3; speed of sound ([2]; 308.15 K, x1 = 1): 1155 ± 2 m/s; viscosity ([2]; 313.15 K, x1 = 1): 0.488 ± 0.02 mPa·s; mass density ([2]; 313.15 K, x1 = 1): 1043.39 ± 0.54 kg/m3; speed of sound ([2]; 313.15 K, x1 = 1): 1134 ± 2 m/s"
CC1CCCCC1 [methylcyclohexane],–,1237 ± 2 m/s,0.729 ± 0.021 mPa·s,–,1215 ± 2 m/s,0.681 ± 0.021 mPa·s,–,1193 ± 2 m/s,0.637 ± 0.021 mPa·s,–,1172 ± 2 m/s,0.598 ± 0.021 mPa·s,–,1150 ± 2 m/s,0.562 ± 0.021 mPa·s,–
CC1CCCCC1 [methylcyclohexane] + CCOC(=O)OCC,–,–,–,–,–,–,–,–,–,–,–,–,–,–,–,"viscosity ([2]; 293.15 K, x2 = 0): 0.729 ± 0.021 mPa·s; speed of sound ([2]; 293.15 K, x2 = 0): 1237 ± 2 m/s; viscosity ([2]; 298.15 K, x2 = 0): 0.681 ± 0.021 mPa·s; speed of sound ([2]; 298.15 K, x2 = 0): 1215 ± 2 m/s; viscosity ([2]; 303.15 K, x2 = 0): 0.637 ± 0.021 mPa·s; speed of sound ([2]; 303.15 K, x2 = 0): 1193 ± 2 m/s; viscosity ([2]; 308.15 K, x2 = 0): 0.598 ± 0.021 mPa·s; speed of sound ([2]; 308.15 K, x2 = 0): 1172 ± 2 m/s; viscosity ([2]; 313.15 K, x2 = 0): 0.562 ± 0.021 mPa·s; speed of sound ([2]; 313.15 K, x2 = 0): 1150 ± 2 m/s"

# Source: the NIST ThermoML archive (doi:10.1021/je049895b)
